Where two headings read alike, the source gives them in different places.
Columns and labels:
[1] = test system: phenylbenzoquinone writhing; assay: Analgesic activity, phenylbenzoquinone method in mouse; assay type: in vivo, mouse (ddY strain, male); settings: for Frequency of writhing, mean ± S.E.: during 10 minutes
Protocol: (i) Phenylbenzoquinone method in mouse
The test compound was orally administered to each ddY strain male mouse (weighing 22±2 g; 8 mice per group). […] The frequency of writhing during 10 minutes from 5-minutes after the injection of phenylbenzoquinone was measured and compared with that of a control group to which a 0.5% Tween 80 solution was administered. The percent inhibition was calculated by the following equation: [formula]

[2] = test system: Carrageenin-induced edema; assay: Carrageenin-induced edema; assay type: in vivo, rat (Donryu strain, male); settings: Rattus norvegicus, po, read-out: Inhibitory percent of swelling; for inhibition in vivo at 15 mg/kg: 15 mg/kg p.o.
Protocol: (iii) Carrageenin-induced edema
Each of the 6 Donryu strain male rats per group (each weighing about 140 g), which had been fasted overnight, was orally loaded with 4 ml of water and, after 30 minutes, the test compound was orally administered thereto. Thirty minutes thereafter, a 1%(Wt/V) solution of carrageenin in physiological saline was subcutaneously injected into the subplantar region of the left hind paw. At a time interval of one hour, starting from the end of the first hour till the end of the fifth hour after injection of carrageenin, the paw volume was measured by means of a manometer and pressure transducer. By comparison with the percent increase in swelling of the control group of rats to which a 0.5%(V/V) solution of Tween 80 had been administered, the mean inhibitory percent in 5 hours of swelling was calculated by the following equation: [formula]

Vascular permeability [3] = assay: Vascular permeability in rat (Whittle's method); assay type: in vivo, rat (Wistar strain, male)
Protocol: (ii) Vascular permeability in rat (Whittle's method)
The test compound was orally administered to each Wistar strain male rat (weighing about 150 g) which had been fasted overnight. After 55 minutes, 0.5 ml of a 0.5% Evans Blue solution was intravenously injected. Five minutes thereafter, 0.2 ml/100 g of a 3%(V/V) acetic acid solution was intraperitoneally injected. After 60 minutes from the injection of the acetic acid solution, the rats were killed by suffocation with chloroform. After immediate laparotomy, the dye leaked into the peritoneal cavity was washed out with physiological saline. The washings were made up with the saline to 30 ml and the absorbance at 640 mμ was measured to examine the effect of the test compounds by comparing the amounts of leaked dye per rat with one another.

[4] = test system: pain threshold (brewer's yeast, hind paw); assay: Analgesic activity, Randall-Selitto method in rat; assay type: in vivo, rat (Wistar strain, male); settings: for Inhibition: 100% = pain threshold raised by 150 g
Protocol: (ii) Randall-Selitto method in rat
After one hour, the test compound was orally administered. One hour thereafter, the pain threshold value was measured four times at a time interval of one hour. The mean value of four values obtained was taken as the pain threshold value of each group of rats. The activity of the drug was assumed to be 100% when the pain threshold value was raised by 150 g.

[5] = test system: fever (Mycobacterium butyricum); assay: Antipyretic action; assay type: in vivo, rat (Wistar strain, female)
Protocol: A suspension (0.6 mg/0.1 ml) of killed and dried Mycobacterium butyricum in liquid paraffin was subcutaneously injected in an amount of 0.1 ml into the subplantar region of the hind paw of each Wistar strain female rat weighing about 180 g. After 14 hours, the fevered rats were divided into groups, and each test compound was orally administered to each group to examine the antipyretic effect.

Vascular permeability [6] = assay: Vascular permeability in mice (Whittle's method); assay type: in vivo, mouse (ddY strain, male); settings: for Inhibition: dye leakage
Protocol: (i) Vascular permeability in mice (Whittle's method)
The test compound was orally administered to each ddY strain male mouse (weighing each about 20 g). After 20 minutes, 0.1 ml/10 g of a 4%(Wt/V) solution of Pontamine Sky Blue in physiological saline was intravenously injected and 10 minutes thereafter 0.1 ml/10 g of a 0.7%(V/V) solution of acetic acid in physiological saline was injected intraperitoneally. After 30 minutes, the mice were killed by suffocation with chloroform. After immediate laparotomy, the dye leaked into the peritoneal cavity was washed out with distilled water. The washings were made up with water to 30 ml and the absorbance at 620 mμ was measured. The amount of leaked dye per 20 g of mouse weight was compared.

Adjuvant arthritis = assay: Adjuvant arthritis; assay type: in vivo, rat (Sprague-Dawley strain, male); settings: 1 mg/kg p.o./day, mean during one week
Protocol: A suspension containing 6 mg/ml of killed and dried Mycobacterium butyricum in liquid paraffin was subcutaneously injected into the subplantar region of the left hind paw of Sprague-Dawley strain male rats (weighing 180 to 200 g) in a proportion of 0.1 ml/rat. After 14 days, the rats having inflammatory paws of similar volumes were selected and the test compound was orally administered to the rats repeatedly at the rate shown in Table 4 during one week and the mean inhibitory percent of swelling during one week was determined.

[7] = test system: threshold value of pain due to pressure stimuli (tail); settings: for Analgesic effect: 100% = threshold raised by 160 g; for ED50: Mus musculus, po
[8] = Mus musculus, po, 10 min, writhing, 40 mg/kg p.o.
[9] = Mus musculus, po, 10 min, read-out: Inhibition

Cc1ccc(-c2ccc(C(C)C(=O)O)cc2)s1 (centres unmarked) [Compound C6]
Frequency of writhing, mean ± S.E. ([1]; 40 mg/kg p.o.): 18.2 ± 2.8
inhibition in vivo at 40 mg/kg [1, 8]: 22.9%
ED50 ([1]; po, mouse, read-out: ED50): > 50 mg/kg
inhibition in vivo at 5 mg/kg ([2]; 5 mg/kg p.o., mean in 5 hours): 19.1%
inhibition in vivo at 15 mg/kg ([2]; mean in 5 hours): 31.4%

O=C(O)Cc1ccc(-c2cccs2)cc1 [Compound C9]
Frequency of writhing, mean ± S.E. ([1]; 40 mg/kg p.o.): 13.9 ± 1.6
inhibition in vivo at 40 mg/kg [1, 8]: 41.1%
ED50 ([1]; po, mouse, read-out: ED50): > 40 mg/kg
inhibition in vivo at 5 mg/kg ([2]; 5 mg/kg p.o., mean in 5 hours): 15.1%
inhibition in vivo at 15 mg/kg ([2]; mean in 5 hours): 24.1%

O=C(O)Cc1ccccc1Nc1c(Cl)cccc1Cl [Diclofenac sodium]
Inhibition (Vascular permeability [3]; 1 mg/kg p.o.): 5.4%
Inhibition (Vascular permeability [3]; 5 mg/kg p.o.): 30.2%
ED30 (Vascular permeability [3]; Rattus norvegicus, po): 4.8 mg/kg
Inhibition ([4]; 1 mg/kg p.o.): 22.7%
Inhibition ([4]; 5 mg/kg p.o.): 49.7%
Inhibition ([4]; 25 mg/kg p.o.): 74.9%
ED50 ([4]; Rattus norvegicus, po): 5.3 mg/kg
Frequency of writhing, mean ± S.E. ([1]; 5 mg/kg p.o.): 21.4 ± 3.0
Frequency of writhing, mean ± S.E. ([1]; 10 mg/kg p.o.): 16.2 ± 3.1
Frequency of writhing, mean ± S.E. ([1]; 20 mg/kg p.o.): 10.9 ± 1.7
ED50 ([1]; Mus musculus, po): 17.7 mg/kg
inhibition in vivo at 5 mg/kg [1, 9]: 9.3%
inhibition in vivo at 20 mg/kg [1, 9]: 53.8%
inhibition in vivo at 1 mg/kg ([2]; 5 h): 6.4%
inhibition in vivo at 5 mg/kg ([2]; 5 h): 39.8%
Mean decrease in temp. ([5]; 0.2 mg/kg p.o.): 0.88 °C
Mean decrease in temp. ([5]; 1 mg/kg p.o.): 1.63 °C
Mean decrease in temp. ([5]; 5 mg/kg p.o.): 1.57 °C
ED1.0 ([5]; Rattus norvegicus, po): 0.25 mg/kg
Dye leakage (P.S.B.) mean ± S.E. (Vascular permeability [6]; 10 mg/kg p.o.): 227.0 ± 14.4 μg/20g
Dye leakage (P.S.B.) mean ± S.E. (Vascular permeability [6]; 20 mg/kg p.o.): 205.3 ± 10.1 μg/20g
ED30 (Vascular permeability [6]; Mus musculus, po): 14 mg/kg
Inhibition (Vascular permeability [6]; 5 mg/kg p.o.): 5.4%
Inhibition (Vascular permeability [6]; 20 mg/kg p.o.): 36.0%
Inhibitory percent of swelling (Adjuvant arthritis): 10.9%
Analgesic effect ([7]; 5 mg/kg p.o.): 31%
Analgesic effect ([7]; 20 mg/kg p.o.): 71%
ED50 [7]: 9.5 mg/kg

CC(C(=O)O)c1cccc(C(=O)c2ccccc2)c1 (centres unmarked) [Ketoprofen]
Analgesic effect ([7]; 10 mg/kg p.o.): 40%
Analgesic effect ([7]; 40 mg/kg p.o.): 61%
ED50 [7]: 19.5 mg/kg

CC(C(=O)O)c1ccc(-c2ccc(Cl)s2)cc1 (centres unmarked) [Compound C8]
Frequency of writhing, mean ± S.E. ([1]; 20 mg/kg p.o.): 17.5 ± 4.2
Frequency of writhing, mean ± S.E. ([1]; 40 mg/kg p.o.): 6.3 ± 0.6
inhibition in vivo at 20 mg/kg ([1]; Mus musculus, po, 10 min, writhing, 20 mg/kg p.o., read-out: Inhibition): 25.8%
inhibition in vivo at 40 mg/kg [1, 8]: 73.3%
ED50 ([1]; po, mouse, read-out: ED50): 27 mg/kg
inhibition in vivo at 5 mg/kg ([2]; 5 mg/kg p.o., mean in 5 hours): 17%
inhibition in vivo at 15 mg/kg ([2]; mean in 5 hours): 41.9%

Cc1csc(-c2ccc(C(C)C(=O)O)cc2)c1 (centres unmarked) [Compound C5]
Frequency of writhing, mean ± S.E. ([1]; 40 mg/kg p.o.): 23.4 ± 1.9
inhibition in vivo at 40 mg/kg [1, 8]: 0.8%
ED50 ([1]; po, mouse, read-out: ED50): > 50 mg/kg
inhibition in vivo at 3 mg/kg ([2]; 3 mg/kg p.o., mean in 5 hours): -25.7%
inhibition in vivo at 10 mg/kg ([2]; 10 mg/kg p.o., mean in 5 hours): 0.7%
